Each block holds one compound with its values, some of them ahead of it.
Tested on: 596521-263-R-J1-PDC complex spheroid growth
Test: Anticancer human tumor 596521-263-R-J1-PDC patient-derived soft tissue sarcoma cell line growth inhibition [Asc]
Details: for IC50: curve of first compound; for viability, T/C: stronger effect = lower value
Outline: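 Complex solid-tumor spheroids incorporating human endothelial and mesenchymal stem cells received single agents or combinations over half-log dilution ranges anchored to clinical Cmax.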
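Also: spheroids exposed to compounds for 7 days.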

- IC50 (second compound 0.00949 µM): 32.9 nM
- IC50 (second compound 0.03 µM): 33.6 nM
- IC50 (second compound 0.0949 µM): 37.4 nM
- IC50 (second compound 0.3 µM): 29.4 nM
- IC50 (second compound 0.949 µM): 35.1 nM
- IC50 (second compound 3 µM): 28.2 nM
Structure (SMILES): NC(=O)C(=Cn1cnc(-c2cc(C(F)(F)F)cc(C(F)(F)F)c2)n1)c1cncnc1 + CCN1C(C(=O)NC23CCC(C(=O)O)(CC2)CC3)C(c2cccc(Cl)c2F)C2(C(=O)Nc3cc(Cl)ccc32)C12CCCCC2
- viability, T/C (second compound 0.00949 µM, first compound 0.000949 µM): 92%
- viability, T/C (second compound 0.00949 µM, first compound 0.003 µM): 97.2%
- viability, T/C (second compound 0.00949 µM, first compound 0.00949 µM): 68.5%
- viability, T/C (second compound 0.00949 µM, first compound 0.03 µM): 61.4%
- viability, T/C (second compound 0.00949 µM, first compound 0.0949 µM): 15.4%
- viability, T/C (second compound 0.00949 µM, first compound 0.3 µM): 10.3%
- viability, T/C (second compound 0.03 µM, first compound 0.000949 µM): 102%
- viability, T/C (second compound 0.03 µM, first compound 0.003 µM): 96.3%
- viability, T/C (second compound 0.03 µM, first compound 0.00949 µM): 78.8%
- viability, T/C (second compound 0.03 µM, first compound 0.03 µM): 56.8%
- viability, T/C (second compound 0.03 µM, first compound 0.0949 µM): 20.4%
- viability, T/C (second compound 0.03 µM, first compound 0.3 µM): 11.5%
- viability, T/C (second compound 0.0949 µM, first compound 0.000949 µM): 112%
- viability, T/C (second compound 0.0949 µM, first compound 0.003 µM): 108%
- viability, T/C (second compound 0.0949 µM, first compound 0.00949 µM): 87.8%
- viability, T/C (second compound 0.0949 µM, first compound 0.03 µM): 61.4%
- viability, T/C (second compound 0.0949 µM, first compound 0.0949 µM): 17.1%
- viability, T/C (second compound 0.0949 µM, first compound 0.3 µM): 10.3%
- viability, T/C (second compound 0.3 µM, first compound 0.000949 µM): 127%
- viability, T/C (second compound 0.3 µM, first compound 0.003 µM): 91.7%
- viability, T/C (second compound 0.3 µM, first compound 0.00949 µM): 77.3%
- viability, T/C (second compound 0.3 µM, first compound 0.03 µM): 56.6%
- viability, T/C (second compound 0.3 µM, first compound 0.0949 µM): 18%
- viability, T/C (second compound 0.3 µM, first compound 0.3 µM): 8.14%
- viability, T/C (second compound 0.949 µM, first compound 0.000949 µM): 104%
- viability, T/C (second compound 0.949 µM, first compound 0.003 µM): 102%
- viability, T/C (second compound 0.949 µM, first compound 0.00949 µM): 79.6%
- viability, T/C (second compound 0.949 µM, first compound 0.03 µM): 61%
- viability, T/C (second compound 0.949 µM, first compound 0.0949 µM): 16.3%
- viability, T/C (second compound 0.949 µM, first compound 0.3 µM): 11.4%
- viability, T/C (second compound 3 µM, first compound 0.000949 µM): 88.2%
- viability, T/C (second compound 3 µM, first compound 0.003 µM): 88.3%
- viability, T/C (second compound 3 µM, first compound 0.00949 µM): 74.3%
- viability, T/C (second compound 3 µM, first compound 0.03 µM): 48.4%
- viability, T/C (second compound 3 µM, first compound 0.0949 µM): 22%
- viability, T/C (second compound 3 µM, first compound 0.3 µM): 9.41%

- IC50 (second compound 0.00949 µM): > 100 nM
- IC50 (second compound 0.03 µM): > 100 nM
- IC50 (second compound 0.0949 µM): > 100 nM
- IC50 (second compound 0.3 µM): > 100 nM
- IC50 (second compound 0.949 µM): > 100 nM
- IC50 (second compound 3 µM): > 100 nM
Structure (SMILES): NC1CCC(NC2CC2c2ccccc2)CC1 (centres undefined) + CCN1C(C(=O)NC23CCC(C(=O)O)(CC2)CC3)C(c2cccc(Cl)c2F)C2(C(=O)Nc3cc(Cl)ccc32)C12CCCCC2
- viability, T/C (second compound 0.00949 µM, first compound 0.000316 µM): 98.8%
- viability, T/C (second compound 0.00949 µM, first compound 0.001 µM): 78.1%
- viability, T/C (second compound 0.00949 µM, first compound 0.00316 µM): 84.2%
- viability, T/C (second compound 0.00949 µM, first compound 0.01 µM): 88.9%
- viability, T/C (second compound 0.00949 µM, first compound 0.0316 µM): 83.7%
- viability, T/C (second compound 0.00949 µM, first compound 0.1 µM): 105%
- viability, T/C (second compound 0.03 µM, first compound 0.000316 µM): 84.2%
- viability, T/C (second compound 0.03 µM, first compound 0.001 µM): 85.3%
- viability, T/C (second compound 0.03 µM, first compound 0.00316 µM): 89.6%
- viability, T/C (second compound 0.03 µM, first compound 0.01 µM): 87.6%
- viability, T/C (second compound 0.03 µM, first compound 0.0316 µM): 82.5%
- viability, T/C (second compound 0.03 µM, first compound 0.1 µM): 88.7%
- viability, T/C (second compound 0.0949 µM, first compound 0.000316 µM): 95.3%
- viability, T/C (second compound 0.0949 µM, first compound 0.001 µM): 87.9%
- viability, T/C (second compound 0.0949 µM, first compound 0.00316 µM): 85%
- viability, T/C (second compound 0.0949 µM, first compound 0.01 µM): 84.5%
- viability, T/C (second compound 0.0949 µM, first compound 0.0316 µM): 89.1%
- viability, T/C (second compound 0.0949 µM, first compound 0.1 µM): 81.4%
- viability, T/C (second compound 0.3 µM, first compound 0.000316 µM): 87.7%
- viability, T/C (second compound 0.3 µM, first compound 0.001 µM): 87.7%
- viability, T/C (second compound 0.3 µM, first compound 0.00316 µM): 80.7%
- viability, T/C (second compound 0.3 µM, first compound 0.01 µM): 94.1%
- viability, T/C (second compound 0.3 µM, first compound 0.0316 µM): 85.4%
- viability, T/C (second compound 0.3 µM, first compound 0.1 µM): 87.8%
- viability, T/C (second compound 0.949 µM, first compound 0.000316 µM): 94.7%
- viability, T/C (second compound 0.949 µM, first compound 0.001 µM): 87.2%
- viability, T/C (second compound 0.949 µM, first compound 0.00316 µM): 87.9%
- viability, T/C (second compound 0.949 µM, first compound 0.01 µM): 97.3%
- viability, T/C (second compound 0.949 µM, first compound 0.0316 µM): 92.8%
- viability, T/C (second compound 0.949 µM, first compound 0.1 µM): 82.5%
- viability, T/C (second compound 3 µM, first compound 0.000316 µM): 80.9%
- viability, T/C (second compound 3 µM, first compound 0.001 µM): 83.2%
- viability, T/C (second compound 3 µM, first compound 0.00316 µM): 85.2%
- viability, T/C (second compound 3 µM, first compound 0.01 µM): 71%
- viability, T/C (second compound 3 µM, first compound 0.0316 µM): 75.9%
- viability, T/C (second compound 3 µM, first compound 0.1 µM): 82.7%
